Results from patent US9913843B2, “Protein kinase C inhibitors and uses thereof” (Rigel Pharmaceuticals, Inc., priority 2012, dated 2018).
Where two headings read alike, the source gives them in different places.

Test system: PKC mediated IL-2 production in human primary T cells
Assay: IL-2 ELISA, human primary T cell, anti CD3+CD28+ (whole cell functional assay for PKC mediated IL-2 production)
Type: cell-based
In short: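 IL-2 in supernatants was quantified by ELISA after 24 h at 37 °C. Before stimulation with plate-coated anti-CD3 (1 μg/ml) and anti-CD28 (5 μg/ml), T cells expanded from PBMC were exposed to compound for 1 h; the counter-screen replaced antibodies with PMA 0.5 ng/ml and ionomycin 0.1 μM (final).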

[1] = 24 h, human primary T cells stimulated with anti-CD3 + anti-CD28, IL-2 by ELISA, read-out: IC50 for blocking IL-2 production
[2] = human primary T cells stimulated with anti-CD3 + anti-CD28, 24 h, IL-2 by ELISA, 8 pt, read-out: IL2 ELISA, Human primary T cell, anti-CD3 + CD28, 8 pt (IC50)

IC50 [1]	IC50 [2]	Structure (SMILES)
< 30 µM	2.57 µM	CN(C)c1cnc(Nc2ccc(C3CC3)c(C#N)c2)nc1NC[C@@H]1CCCN2CCCC[C@H]12 [Compound 94, 5-(4-(((1S,9aR)-octahydro-1H-quinolizin-1-yl)methylamino)-5-(dimethylamino)pyrimidin-2-ylamino)-2-cyclopropylbenzonitrile]
< 30 µM	4.98 µM	COc1cc(Nc2ncc(N(C)C)c(NC[C@@H]3CCCN4CCCC[C@H]34)n2)cc(OC)c1 [Compound 96, N4-(((1S,9aR)-octahydro-1H-quinolizin-1-yl)methyl)-N2-(3,5-dimethoxyphenyl)-N5,N5-dimethylpyrimidine-2,4,5-triamine]
< 30 µM	10.7 µM	Cc1ccc(Nc2ncc(C(F)(F)F)c(NC[C@@H]3CCCN4CCCC[C@H]34)n2)cc1-n1cnnn1 [Compound 101, 5-(trifluoromethyl)-N4-(((1S,9aR)-octahydro-1H-quinolizin-1-yl)methyl)-N2-(4-methyl-3-(1H-tetrazol-1-yl)phenyl)pyrimidine-2,4-diamine]
< 30 µM	26.8 µM	Cc1nnnn1-c1ccc(F)c(Nc2ncc(C(F)(F)F)c(NC[C@@H]3CCCN4CCCC[C@H]34)n2)c1 [Compound 104, N2-(2-fluoro-5-(5-methyl-1H-tetrazol-1-yl)phenyl)-5-(trifluoromethyl)-N4-(((1S,9aR)-octahydro-1H-quinolizin-1-yl)methyl)pyrimidine-2,4-diamine]
< 30 µM	11.8 µM	COc1ccc(Nc2ncc(C(F)(F)F)c(NC[C@@H]3CCCN4CCCC[C@H]34)n2)cc1-n1nnnc1C [Compound 105, 5-(trifluoromethyl)-N4-(((1S,9aR)-octahydro-1H-quinolizin-1-yl)methyl)-N2-(4-methoxy-3-(5-methyl-1H-tetrazol-1-yl)phenyl)pyrimidine-2,4-diamine]
< 30 µM	17.1 µM	N#Cc1cccc(Nc2ncc(C(F)(F)F)c(NC[C@@H]3CCCN4CCCC[C@H]34)n2)c1 [Compound 107, 3-(4-(((1S,9aR)-octahydro-1H-quinolizin-1-yl)methylamino)-5-(trifluoromethyl)pyrimidin-2-ylamino)benzonitrile]
< 30 µM	12.5 µM	COc1cc(Nc2ncc(C(F)(F)F)c(NC[C@@H]3CCCN4CCCC[C@H]34)n2)cc(OC)c1 [Compound 111, 5-(trifluoromethyl)-N4-(((1S,9aR)-octahydro-1H-quinolizin-1-yl)methyl)-N2-(3,5-dimethoxyphenyl)pyrimidine-2,4-diamine]
< 30 µM	21.7 µM	O=c1[nH]c2cc(Nc3ncc(C(F)(F)F)c(NC[C@@H]4CCCN5CCCC[C@H]45)n3)ccc2o1 [Compound 112, 5-(4-(((1S,9aR)-octahydro-1H-quinolizin-1-yl)methylamino)-5-(trifluoromethyl)pyrimidin-2-ylamino)benzo[d]oxazol-2(3H)-one]
< 30 µM	0.018 µM	COc1ccc(Nc2ncc(C#N)c(NC[C@@H]3CCCN4CCCC[C@H]34)n2)cc1-n1nnnc1C [Compound 113, 4-(((1S,9aR)-octahydro-1H-quinolizin-1-yl)methylamino)-2-(4-methoxy-3-(5-methyl-1H-tetrazol-1-yl)phenylamino)pyrimidine-5-carbonitrile]
< 30 µM	0.0225 µM	COc1cc(Nc2ncc(C#N)c(NC[C@@H]3CCCN4CCCC[C@H]34)n2)cc(-n2nnnc2C)c1 [Compound 115, 4-(((1S,9aR)-octahydro-1H-quinolizin-1-yl)methylamino)-2-(3-methoxy-5-(5-methyl-1H-tetrazol-1-yl)phenylamino)pyrimidine-5-carbonitrile]

Second part, the compound before the results:

Structure (SMILES)	IC50 [1]	IC50 [2]
CN(C)c1cnc(Nc2cccc(C#N)c2)nc1NC[C@@H]1CCCN2CCCC[C@H]12 [Compound 92, 3-(4-(((1S,9aR)-octahydro-1H-quinolizin-1-yl)methylamino)-5-(dimethylamino)pyrimidin-2-ylamino)benzonitrile]	< 30 µM	9.46 µM
Cc1ccc(Nc2ncc(N(C)C)c(NC[C@@H]3CCCN4CCCC[C@H]34)n2)cc1C#N [Compound 93, 5-(4-(((1S,9aR)-octahydro-1H-quinolizin-1-yl)methylamino)-5-(dimethylamino)pyrimidin-2-ylamino)-2-methylbenzonitrile]	< 30 µM	3.92 µM
CN(C)c1cnc(Nc2cc(C#N)c(C3CC3)cc2F)nc1NC[C@@H]1CCCN2CCCC[C@H]12 [Compound 95, 5-(4-(((1S,9aR)-octahydro-1H-quinolizin-1-yl)methylamino)-5-(dimethylamino)pyrimidin-2-ylamino)-2-cyclopropyl-4-fluorobenzonitrile]	< 30 µM	1.74 µM
CN(C)c1cnc(Nc2ccc3oc(=O)[nH]c3c2)nc1NC[C@@H]1CCCN2CCCC[C@H]12 [Compound 97, 5-(4-(((1S,9aR)-octahydro-1H-quinolizin-1-yl)methylamino)-5-(dimethylamino)pyrimidin-2-ylamino)benzo[d]oxazol-2(3H)-one]	< 30 µM	5.41 µM
CC1(C)Oc2ccc(Nc3ncc(F)c(NC[C@@H]4CCCN5CCCC[C@H]45)n3)cc2-n2nnnc21 [Compound 98, N2-(4,4-dimethyl-4H-5-oxa-1,2,3,9b-tetraaza-cyclopenta[a]naphthalen-8-yl)-5-fluoro-N4-(((1S,9aR)-octahydro-1H-quinolizin-1-yl)methyl)-pyrimidine-2,4-diamine]	< 30 µM	0.0774 µM
Cn1nnn(-c2cc(Nc3ncc(C#N)c(NC[C@@H]4CCCN5CCCC[C@H]45)n3)c(F)cc2C2CC2)c1=O [Compound 99, 4-(((1S,9aR)-octahydro-1H-quinolizin-1-yl)methylamino)-2-(4-cyclopropyl-2-fluoro-5-(4,5-dihydro-4-methyl-5-oxotetrazol-1-yl)phenylamino)pyrimidine-5-carbonitrile]	< 30 µM	0.0509 µM
Fc1cc(C2CC2)c(-n2cnnn2)cc1Nc1ncc(C(F)(F)F)c(NC[C@@H]2CCCN3CCCC[C@H]23)n1 [Compound 100, N2-(4-cyclopropyl-2-fluoro-5-(1H-tetrazol-1-yl)phenyl)-5-(trifluoromethyl)-N4-(((1S,9aR)-octahydro-1H-quinolizin-1-yl)methyl)pyrimidine-2,4-diamine]	< 30 µM	4.21 µM
Cn1nnn(-c2cc(Nc3ncc(C(F)(F)F)c(NC[C@@H]4CCCN5CCCC[C@H]45)n3)c(F)cc2C2CC2)c1=O [Compound 102, 1-(5-(4-(((1S,9aR)-octahydro-1H-quinolizin-1-yl)methylamino)-5-(trifluoromethyl)pyrimidin-2-ylamino)-2-cyclopropyl-4-fluorophenyl)-4-methyl-1H-tetrazol-5(4H)-one]	< 30 µM	12.6 µM
Cc1nnnn1-c1cc(Nc2ncc(C(F)(F)F)c(NC[C@@H]3CCCN4CCCC[C@H]34)n2)ccc1F [Compound 103, N2-(4-fluoro-3-(5-methyl-1H-tetrazol-1-yl)phenyl)-5-(trifluoromethyl)-N4-(((1S,9aR)-octahydro-1H-quinolizin-1-yl)methyl)pyrimidine-2,4-diamine]	< 30 µM	26.6 µM
COc1cc(Nc2ncc(C(F)(F)F)c(NC[C@@H]3CCCN4CCCC[C@H]34)n2)cc(-n2nnnc2C)c1 [Compound 106, 5-(trifluoromethyl)-N4-(((1S,9aR)-octahydro-1H-quinolizin-1-yl)methyl)-N2-(3-methoxy-5-(5-methyl-1H-tetrazol-1-yl)phenyl)pyrimidine-2,4-diamine]	< 30 µM	21.5 µM
Cc1ccc(Nc2ncc(C(F)(F)F)c(NC[C@@H]3CCCN4CCCC[C@H]34)n2)cc1C#N [Compound 108, 5-(4-(((1S,9aR)-octahydro-1H-quinolizin-1-yl)methylamino)-5-(trifluoromethyl)pyrimidin-2-ylamino)-2-methylbenzonitrile]	< 30 µM	–
N#Cc1cc(Nc2ncc(C(F)(F)F)c(NC[C@@H]3CCCN4CCCC[C@H]34)n2)ccc1C1CC1 [Compound 109, 5-(4-(((1S,9aR)-octahydro-1H-quinolizin-1-yl)methylamino)-5-(trifluoromethyl)pyrimidin-2-ylamino)-2-cyclopropylbenzonitrile]	< 30 µM	6.58 µM
N#Cc1cc(Nc2ncc(C(F)(F)F)c(NC[C@@H]3CCCN4CCCC[C@H]34)n2)c(F)cc1C1CC1 [Compound 110, 5-(4-(((1S,9aR)-octahydro-1H-quinolizin-1-yl)methylamino)-5-(trifluoromethyl)pyrimidin-2-ylamino)-2-cyclopropyl-4-fluorobenzonitrile]	< 30 µM	10.7 µM
Cc1nnnn1-c1cc(Nc2ncc(C#N)c(NC[C@@H]3CCCN4CCCC[C@H]34)n2)ccc1F [Compound 114, 4-(((1S,9aR)-octahydro-1H-quinolizin-1-yl)methylamino)-2-(4-fluoro-3-(5-methyl-1H-tetrazol-1-yl)phenylamino)pyrimidine-5-carbonitrile]	< 30 µM	0.0365 µM
N#Cc1cnc(Nc2cc(-n3cnnn3)c(C3CC3)cc2F)nc1NC[C@@H]1CCCN2CCCC[C@H]12 [Compound 116, 4-(((1S,9aR)-octahydro-1H-quinolizin-1-yl)methylamino)-2-(4-cyclopropyl-2-fluoro-5-(1H-tetrazol-1-yl)phenylamino)pyrimidine-5-carbonitrile]	< 30 µM	0.0074 µM
Cc1ccc(Nc2ncc(C#N)c(NC[C@@H]3CCCN4CCCC[C@H]34)n2)cc1-n1cnnn1 [Compound 117, 4-(((1S,9aR)-octahydro-1H-quinolizin-1-yl)methylamino)-2-(4-methyl-3-(1H-tetrazol-1-yl)phenylamino)pyrimidine-5-carbonitrile]	< 30 µM	0.0117 µM
